Assay results from patent US10743544B2, “Method for inactivating Cronobacter sakazakii” (priority 2015, dated 2020).
Entries after “also recorded” stand apart in the source; their conditions may differ.

Key:
[1] = pH of rehydrated PIF after addition of natural extract (pH meter); assay type: physicochemical; conditions: 5 mg/mL added to rehydrated PIF (initial pH 6.82)
Method: (§1) A commercial PIF (Wondersun, Harbin, Hei Longjiang Province, China) was purchased and reconstituted according to the manufacturer's instruction. Briefly, 15 g of the PIF was reconstituted in 100 mL of sterile distilled water. 5 mg/mL TP, malic acid, citric acid or ascorbic acid (VC) was added to the rehydrated PIF, and shaken gently to make sure that it was fully dissolved. A pH meter was used to determine the pH of all the solutions. The initial pH of rehydrated PIF was 6.82 and it dropped to pH 3.62, pH 3.55, pH 4.55 and pH 6.46 after added 5 mg/mL malic acid, citric acid, VC and TP, respectively. The final concentration of the natural extract solutions was 0.5% and the milk powder solutions were packed into different test tubes with 9 ml solution in each tube. Milk powder solution without any natural extract product was used as the control group.

[2] = test system: Cronobacter sakazakii strains ES45, ES46, ES37, and ES39; assay: Tolerance of C. sakazakii to different natural extracts in PIF, plate count (FIG. 1); assay type: cell-based; conditions: 0.5% in PIF, pH not adjusted, four strains; for growth trend of C. sakazakii (plate count): 37° C., up to 7 hours
Method: as §1
1 mL of 8.0 Log CFU/mL cell suspensions of four C. sakazakii strains were separately added to 9 mL rehydrated PIF with different natural extracts prepared above to obtain final concentrations of approximately 7.0 Log CFU/mL. The cell suspensions with different natural extracts were incubated at 37° C. for 1, 3, 5 and 7 hours, and mixed to make sure that the solutions were homogeneous. After serial dilution with NS, 0.1 mL of appropriately diluted cultures were spread-plated on TSA plates and incubated upside down at 37° C. overnight to observe the growth of Cronobacter sakazakii.
The tolerance of four different ST types of Cronobacter sakazakii to different natural extracts was studied by serial dilution plate count method. The cell suspensions were separately added to PIF containing 0.5% tea polyphenols, 0.5% VC, 0.5% malic acid or 0.5% citric acid. The pH of each solution was measured using a pH meter and the plate count analysis was carried out at different time points of incubation.

[3] = test system: Cronobacter sakazakii strains ES45, ES46, ES37 and ES39; assay: Tolerance of C. sakazakii to acidified natural extracts in PIF, pH 3.55 (FIG. 2); assay type: cell-based; conditions: 0.5% in PIF, pH 3.55 versus unadjusted pH
Method: A commercial PIF (Wondersun, Harbin, Hei Longjiang Province, China) was purchased and reconstituted according to the manufacturer's instruction. Briefly, 15 g of the PIF was reconstituted in 100 mL of sterile distilled water. 5 mg/mL TP was added to the rehydrated PIF and shaken gently to make sure it was fully dissolved. As controls, malic acid, citric acid and VC were dissolved in PIF in the same way as that of TP. A pH meter was used to determine the pH of all solutions. The initial pH of rehydrated PIF was 6.82 and the value of pH dropped to pH 3.62, pH 3.55, pH 4.55 and pH 6.46 after addition of 5 mg/mL malic acid, citric acid, VC and TP, respectively. The final concentration of the natural extract solutions was 0.5% (w/v) and PIF solutions were packed into different test tubes, each tube with 9 mL solution. PIF solution without adding additional substance was used as the blank control group.
In order to eliminate the effect of pH on the growth of Cronobacter sakazakii, it is necessary to adjust the pH for each treatment group to be the same. The pH of all the treatment groups was adjusted to pH 3.55 with 4 M HCl and 4M NaOH, which was the minimum pH of all the treatment solutions. The PIF acidified with HCl was used as the control. 1 mL of 8.0 Log CFU/mL cell suspensions of the four C. sakazakii strains were separately added to 9 mL acidified PIF with different natural extracts. […]

pH of rehydrated PIF after addition [1] | SMILES | growth trend of C. sakazakii (plate count) [2] | antibacterial effect in PIF [2] | antibacterial/inhibitory effect after acidification compared with before [3]
3.62 | O=C(O)CC(O)C(=O)O (centres unmarked) [malic acid] | did not change much | not obvious | 
4.55 | O=C1O[C@H]([C@@H](O)CO)C(O)=C1O [VC, ascorbic acid] | slower growth trend | not obvious | stronger antibacterial activity than before the treatment
3.55 | O=C(O)CC(O)(CC(=O)O)C(=O)O [citric acid] | downward trend | some antibacterial effect | not significantly different; also recorded: not significant
